Measurements: patent US20190307783A1, “USE OF ANTIVIRALS TO INHIBIT PROTOZOAN VIRUSES” (priority 2016, published 2019)
Like-named read-outs stand apart in the source and are kept apart here.

How the values were obtained:
L. guyanensis (LgyLRV1+) = assay: Drug-inhibition test: growth of LgyLRV1+ parasites; type: cell-based, Leishmania guyanensis
Description: These compounds were examined for their ability to inhibit the growth of LgyLRV1^+ and virus levels by LRV1 capsid flow cytometry.
Most studies were performed using luciferase-expressing transfectants of L. guyanensis (MHOM/BR/78/M4147) described previously [LRV1^+ LgyM4147/SSU:IR2SAT-LUC(b)c3 and LRV^−LgyM4147/pX63HYG/SSU:IR2SAT-LUC(b)c4] (54); these lines are termed LgyLRV1^+ and LgyLRV1^−, respectively. Two strains of LRV1^+L. braziliensis were examined: LEM2780 (MHOM/BO/90/CS) and LEM3874 (MHOM/BO/99/IMT252 no. 3) (12). Parasites were grown in Schneider's media (Sigma Aldrich, St. Louis, Mo., USA) prepared according to the supplier's instructions with pH adjusted to 6.5 and supplemented with 0.76 mM hemin, 2 μg/mL biopterin, 50 U/mL penicillin, 50 μg/mL streptomycin, and 10% (vol/vol) heat-inactivated FBS. Cell concentrations were determined using a Coulter Counter ([…], Indianapolis, Ind., USA).
(§1) Parasites were inoculated at 2×10^5 cells/mL into Schneider's media lacking supplemental adenine.

[1] = tested on: LRV1 (LgyLRV1 capsid levels); assay: microbe, parasite or virus in culture; conditions: for Effect on LRV1 (capsid) levels, in words: screen at 100 μM or maximum concentration permitted by solubility
Text: Because LRV1 (like most Totiviridae) is not shed from the cell (33, 34), we developed a flow cytometric assay to measure intracellular LRV1 capsid levels on a per cell basis. To detect LRV1 we used binding to a rabbit anti-LgyLRV1 capsid antiserum (35) followed by detection with Alexa Fluor488-conjugated goat anti-rabbit IgG.
as §1
For capsid flow cytometry, 10^7 cells were fixed at room temperature using 2% (wt/vol) paraformaldehyde (Thermo Fisher Scientific) in PBS for 2 minutes. They were then incubated in blocking buffer [10% (vol/vol) normal goat serum (Vector Laboratories, Burlingame, Calif., USA) and 0.2% TRITON X-100 in PBS] for 30 minutes at room temperature. Anti-LgyLRV1 capsid antibody (35) was added (1:20,000 dilution) and incubated at room temperature for 1 hour. After two washes with PBS, cells were resuspended in 200 μL PBS with Alexa Fluor488-labeled goat anti-rabbit IgG (Alexafluor, Invitrogen; 1:1,000; or Thermo Fisher Scientific; 1:2,000 dilution), and incubated 1 hour at room temperature. After two additional washes with PBS, cells were subjected to flow cytometry, gating for single cells using forward and side scatter and the data analyzed using […] software (BD Bioscience, San Jose, Calif., USA).

[2] = Leishmania guyanensis, 48 h, LgyLRV1+, tested at 40 μM, growth after 2 days, read-out: Percent control (density)
[3] = LgyLRV1+, tested at 40 μM, growth after 2 days
[4] = 48 h, read-out: Percent control (LRV1 capsid)
[5] = LgyLRV1+, tested at 40 μM, 2 days
[6] = Leishmania guyanensis, 48 h, read-out: Percent control (density)
[7] = Leishmania guyanensis, 48 h, LgyLRV1+, tested at 100 μM, growth after 2 days, read-out: Percent control (density)
[8] = LgyLRV1+, tested at 100 μM, growth after 2 days
[9] = LgyLRV1+, tested at 100 μM, 2 days
[10] = Leishmania guyanensis, 48 h, LgyLRV1+, tested at 1 μM, growth after 2 days, read-out: Percent control (density)
[11] = LgyLRV1+, tested at 1 μM, growth after 2 days
[12] = LgyLRV1+, tested at 1 μM, 2 days
[13] = LgyLRV1+, tested at 50 μM, growth after 2 days

| SMILES | activity at 100 µM [1, 4] [%] | activity at 100 µM (L. guyanensis (LgyLRV1+); [7]) [%] | Density (cells/mL) (L. guyanensis (LgyLRV1+); [8]) | LRV1 capsid (geometric mean FU) [1, 9] [FU] | further results |
| --- | --- | --- | --- | --- | --- |
| Nc1ccn(C[C@@H](CO)OCP(=O)(O)O)c(=O)n1 [Cidofovir] |  |  |  |  | activity at 40 µM (L. guyanensis (LgyLRV1+); [2]): 59%; Density (cells/mL) (L. guyanensis (LgyLRV1+); [3]): 9.99E+6 cells/mL; activity at 40 µM [1, 4]: 240%; LRV1 capsid (geometric mean FU) [1, 5]: 637 FU |
| O=c1nc[nH]c(=O)[nH]1 [Compound 5-Azauracil, 5-Azauracil] | 95 |  |  |  | Density (cells/mL) (L. guyanensis (LgyLRV1+)): 1.13E+7 cells/mL; activity at 100 µM (L. guyanensis (LgyLRV1+); [6]): 67%; LRV1 capsid (geometric mean FU) [1]: 252 FU |
| O=c1cn[nH]c(=O)[nH]1 [Compound 6-Azauracil, 6-Azauracil] | 102 | 71 | 1.20E+7 |  | LRV1 capsid (geometric mean FU) [1]: 271 FU |
| Nc1nc2nn[nH]c2c(=O)[nH]1 [Compound 8-Azaguanine, 8-Azaguanine] | 100 | 34 | 5.68E+6 |  | LRV1 capsid (geometric mean FU) [1]: 264 FU |
| [N-]=[N+]=N[C@]1(CO)O[C@@H](n2ccc(N)nc2=O)[C@H](O)[C@@H]1O [Compound R-1479, 4′-Azido cytidine] | 43 | 73 | 1.23E+7 | 114 |  |
| NC(=O)c1nc(F)c[nH]c1=O [Compound T-705, Favipiravir] | 60 | 67 | 1.13E+7 | 161 |  |
| O=c1[nH]cnc2c1ncn2[C@H]1CC[C@@H](CO)O1 [Didanosine] | 68 |  | 1.80E+7 | 182 | activity at 100 µM (L. guyanensis (LgyLRV1+); [6]): 107% |
| C=C1[C@H](CO)[C@@H](O)C[C@@H]1n1cnc2c(=O)[nH]c(N)nc21 [Entecavir] | 45 | 105 | 1.77E+7 | 119 |  |
| O=C(O)P(=O)(O)O [Foscarnet, Phosphonoformic acid] | 61 | 56 | 9.50E+6 | 162 | Effect on LRV1 (capsid) levels, in words ([1]; 2 days): not significantly affected |
| Nc1nc(O)c2ncn(COC(CO)CO)c2n1 [Ganciclovir] |  |  |  |  | activity at 40 µM (L. guyanensis (LgyLRV1+); [2]): 58%; Density (cells/mL) (L. guyanensis (LgyLRV1+); [3]): 9.78E+6 cells/mL; activity at 40 µM [1, 4]: 75%; LRV1 capsid (geometric mean FU) [1, 5]: 198 FU |
| COc1c(C)c2c(c(O)c1C/C=C(\C)CCC(=O)O)C(=O)OC2 [Mycophenolic acid] |  |  |  |  | activity at 1 µM (L. guyanensis (LgyLRV1+); [10]): 3%; Density (cells/mL) (L. guyanensis (LgyLRV1+); [11]): 4.55E+5 cells/mL; activity at 1 µM [1, 4]: 90%; LRV1 capsid (geometric mean FU) [1, 12]: 238 FU |
| C#C[C@@]1(O)[C@H](O)[C@@H](CO)O[C@H]1n1ccc2c(N)ncnc21 [NITD008, 7-(2-Ethynyl-β-D-ribofuranosyl)-7H-pyrrolo[2,3-d]pyrimidine-4-amine] |  |  |  |  | activity at 1 µM (L. guyanensis (LgyLRV1+); [10]): 61%; Density (cells/mL) (L. guyanensis (LgyLRV1+); [11]): 1.02E+7 cells/mL; activity at 1 µM [1, 4]: 37%; LRV1 capsid (geometric mean FU) [1, 12]: 98 FU; Effect on LRV1 (capsid) levels, in words ([1]; 2 days): little effect on LRV1 |
| CC(C)OC(=O)[C@H](C)N[P@](=O)(OC[C@H]1O[C@@H](n2ccc(=O)[nH]c2=O)[C@](C)(F)[C@@H]1O)Oc1ccccc1 [PSI-7977, 2-((5-(2,4-dioxo-3,4-dihydro-2H-pyrimidin-1-yl)-4-fluoro-3-hydroxy-4-methyltetrahydrofuranyl-2-methoxy)phenoxyphosphorylamino) propionic acid isopropyl ester] | 61 | 74 | 1.25E+7 | 163 | Effect on LRV1 (capsid) levels, in words ([1]; 2 days): little effect on LRV1 |
| NC(=O)c1ncn([C@@H]2O[C@H](CO)[C@@H](O)[C@H]2O)n1 [Ribavirin] | 61 | 13 | 2.21E+6 | 162 |  |
| Cc1cn([C@H]2C=C[C@@H](CO)O2)c(=O)[nH]c1=O [Stavudine] | 83 | 95 | 1.60E+7 | 220 |  |
| [H]/N=C(/N)NS(=O)(=O)c1ccc(N)cc1 [Sulfaguanidine] | 98 | 68 | 1.15E+7 | 260 |  |
| C[C@H](Cn1cnc2c(N)ncnc21)OCP(=O)(O)O.O [Tenofovir, Tenofovir monohydrate] |  |  | 8.90E+6 | 206 | Percent control (density) (L. guyanensis (LgyLRV1+); [8]): 53 Percent control; Percent control (LRV1 capsid) [1, 9]: 78 Percent control |
| Cc1cn([C@H]2C[C@H](N=[N+]=[N-])[C@@H](CO)O2)c(=O)[nH]c1=O [Zidovudine] | 74 |  | 1.81E+7 | 196 | activity at 100 µM (L. guyanensis (LgyLRV1+); [6]): 107% |
| CC(C)C[C@H](NC(=O)[C@H]1O[C@@H]1C(=O)O)C(=O)NCCCCN=C(N)N [e64, E-64] |  |  |  |  | Density (cells/mL) (L. guyanensis (LgyLRV1+); [13]): 1.80E+07 cells/mL; Percent control (density) (L. guyanensis (LgyLRV1+); [13]): 107 Percent control; Effect on L. guyanensis growth, in words (L. guyanensis (LgyLRV1+); screen at 100 μM or maximum concentration permitted by solubility, 2 days): no effects; LRV1 capsid (geometric mean FU) [1]: 153 FU; Percent control (LRV1 capsid) ([1]; LgyLRV1+, tested at 50 μM, 2 days): 58 Percent control; Effect on LRV1 (capsid) levels, in words ([1]; 2 days): only minimal effects |
| CCOC(=O)[C@H]1O[C@@H]1C(=O)N[C@@H](CC(C)C)C(=O)NCCC(C)C [e64d, E64-d] |  |  |  |  | activity at 10 µM (L. guyanensis (LgyLRV1+); Leishmania guyanensis, 48 h, LgyLRV1+, tested at 10 μM, growth after 2 days, read-out: Percent control (density)): 90%; Density (cells/mL) (L. guyanensis (LgyLRV1+); LgyLRV1+, tested at 10 μM, growth after 2 days): 1.52E+07 cells/mL; activity at 10 µM [1, 4]: 37%; LRV1 capsid (geometric mean FU) ([1]; LgyLRV1+, tested at 10 μM, 2 days): 97 FU |
